Laboratory results from patent US8039501B2, “Synephrine derivatives useful as anti-inflammatory agents” (Universiteit Gent, priority 2005, dated 2011).

Tests used:
MM1.S cell lines = test: Annexin V/PI assay in MM1.S cells; format: cell-based, human; conditions: 10^-5 M, FIG. 13
Experimental: 1. […] Procedure: • Human multiple myeloma cell lines L363, U266, MM1.S and MMR.1 are cultured in RPMI 1640 with Glutamax-I, supplemented with 10% FCS, 100 U/ml penicillin and 100 μg/ml streptomycin. Cells are counted and resuspended in fresh medium at a concentration of 1×10^6/ml. Next, 1 ml of cell suspension is transferred to 5 ml culture tubes in the presence of test compounds (DEX, CpdA, CpdA analogues: 10^−7 to 10^−4 M) or vehicle (EtOH) and incubated for 24 or 48 hours at 37° C. • Double-staining of the cells with PI and annexin V is performed according to the instructions of the Annexin V kit (BD Biosciences). • Double-stained cells are analyzed by flow cytometry. […] Graphs are represented as the ratio of early apoptotic cells versus late apoptotic cells (a) or as total % of living cells (b).

[1] = MTT test, cell viability of L929sA fibroblasts; format: cell-based, murine; conditions: mouse, L929sA fibroblast cells, read-out: Block of L929sA cell viability
Experimental: The MTT test is a standard assay addressing cell toxicity of a compound. It is based on the principle that after 3-4 hours of cell incubation with MTT (3-(4,5-dimethylthiazole-2-yl)-2,5-diphenyl tetrazolium bromide) so-called purple formazan crystals develop in living and early apoptotic cells. Dead cells don't produce formazan crystals.
Different cell lines were tested. Unless indicated differently, A549 human lung epithelial cells (derived from lung carcinoma) and L929sA murine fibroblast cells were cultured in DMEM with 10% FCS, 100 U/ml penicillin and 100 μg/ml streptomycin. Unless indicated differently, the human multiple myeloma cell lines L363, U266 and MM1.S were cultured in RPMI 1640 with Glutamax-I, supplemented with 10% FCS, 100 U/ml penicillin and 100 μg/ml streptomycin. Cells were seeded at 5000 cells/well (for adherent A549 and L929sA cells) or at 10000 cells/well (for the multiple myeloma lines in suspension) in 96 well plates. Cells were incubated in the presence of the respective synephrine compounds or vehicle (EtOH; for control test) in a final volume of 0.2 ml for 24 or 48 hours at 37° C. Subsequently, 20 μl of MTT solution (5 mg/ml in phosphate-buffered saline) was added to each well. After 4 hours incubation at 37° C., 80 μl of the extraction buffer (10% SDS, 0.01 M HCl) was added. After overnight incubation at room temperature, the optical densities at 590 nm were measured. Results are illustrated in FIGS. 2 to 6 and are expressed as percentage of viable cells as compared to vehicle-treated controls.
In a further MTT test, the activity of the synephrine derivatives on the inhibition of cell viability of non-immune cells was measured. […] Tests were performed for 24 hours and for 48 hours. The results are illustrated by FIGS. 5A and 5B for L929 cells, and by FIGS. 6A and 6B for A549 cells. It was observed that CpdA at 10^−5 M blocked cell viability of L929sA and A549 for not more than 10%.

[2] = system: pE-selectin-Luc (E-selectin promoter); test: pE-selectin-Luc reporter gene assay in TNF-induced L929sA cells; format: cell-based, mouse; conditions: 10 microM; TNF-induced; FIG. 1
Source text: L929sA mouse fibroblast cells were stably transfected with pE-selectine-Luc (also referred to as pELAM-luc) by the calcium phosphate precipitation procedure described by De Bosscher et al. in Proc. Natl. Acad. Sci. USA (1997) 94, 13504-13509. The co-transfected plasmid pPGKβGeobpA, conferring resistance to G418 and expressing constitutive β-galactosidase enzymatic activity, was used as an internal control. L929sA cells were transiently transfected by the DEAE-dextran transfection method described by De Bosscher et al. (cited supra).
Recombinant murine tumor necrosis factor (TNF) was produced according to a method standard in the art. Dexamethasone (hereinafter abbreviated as DEX) commercially available from Sigma, and 2-(4-acetoxyphenyl)-2-chloro-N-methyl-ethylammonium chloride (hereinafter abbreviated as compound A) was synthesized according to Louw et al. in Biochemical Pharmacology (1997) 53, 189-197). A stock solution was prepared in ethanol (for DEX) or DMSO (for both comparative compound A and for the compound of example 6 according to this invention, i.e. 1-[4-(benzoyloxy)phenyl]-2-[(tert-butoxy-carbonyl)-methylamino]ethyl-1H-imidazole-1-carboxylate), aliquoted and stored at −70° C.
Induction was performed in triplicate for each independent experiment, which was carried out at least twice. Induction with DEX, compound A, and for the compound of example 6 according to this invention at 1 μM, 10 μM or respectively any other indicated concentration were performed at −2 hours for a total of 8 hours, while TNF (2000 IU/ml) was added at time point zero and left on the cells for 6 hours. After induction, cells were lysed with a lysis buffer (commercially available from Tropix, Bedford, Massachussets) and samples were assayed according to the manufacturer's instructions (Promega Biotech).
In order to investigate whether the inhibitory effect of compound A or the compound of example 6 according to this invention is directed at the transcriptional level of NF-κB-driven genes, the NF-κB-dependent physiological promoter construct, pE-selectin-Luc stably integrated into L929sA cells, was tested. […] DEX-mediated and compound A-mediated inhibition of TNF-induced gene expression were used as controls (FIG. 1). In the appended figures, NI stands for non-induced (either in presence of solvent controls like ethanol or DMSO).

## CNCC(Cl)c1ccc(OC(C)=O)cc1.Cl (centres unmarked) [CpdA, 2-(4-acetoxyphenyl)-2-chloro-N-methyl-ethylammonium chloride]
MM1.S cell lines
  Apoptosis (Annexin V/PI staining): able to mediate apoptosis in the MM1.S cell lines at 10-5 M, to a much higher extent than Dex
[1]; 10^−4 M, 24 hours, FIG. 5A
  cytotoxicity at 24 h: 20%
[1]; 10^−4 M, 48 hours, FIG. 5B
  cytotoxicity at 48 h: 60%
[1]; 10^−5 M, 24 hours and 48 hours, FIGS. 5A and 5B
  cytotoxicity: ≤ 10%
[2]
  Inhibition of the expression of E-selectin: inhibit the expression of E-selectin
